± gives the expanded uncertainty stated by the source.
Tests used:
[1] = Liquid, Vibrating tube method
[2] = refractive index (Na D-line) (dimensionless); details: 298.15 K; 101.33 kPa; Liquid; Standard Abbe refractometry

CN(C)C=O [dimethylformamide]
[1]
Details	mass density [kg/m3]
293.15 K, 100 kPa	949 ± 1
293.15 K, 2500 kPa	950 ± 1
293.15 K, 5100 kPa	952 ± 1
293.15 K, 10100 kPa	955 ± 1
293.15 K, 15100 kPa	958 ± 1
293.15 K, 20100 kPa	960 ± 1
293.15 K, 25000 kPa	963 ± 1
293.15 K, 30300 kPa	966 ± 1
298.15 K, 101.33 kPa	943.978 ± 4
303.15 K, 100 kPa	939 ± 1
303.15 K, 2500 kPa	941 ± 1
303.15 K, 5100 kPa	943 ± 1
303.15 K, 10000 kPa	940 ± 10
303.15 K, 15100 kPa	949 ± 1
303.15 K, 20100 kPa	951 ± 1
303.15 K, 25000 kPa	954 ± 1
303.15 K, 30100 kPa	957 ± 1
313.15 K, 100 kPa	930 ± 1
313.15 K, 2600 kPa	931 ± 1
313.15 K, 5100 kPa	933 ± 1
313.15 K, 10000 kPa	936 ± 1
313.15 K, 15100 kPa	939 ± 1
313.15 K, 20100 kPa	942 ± 1
313.15 K, 25000 kPa	945 ± 1
313.15 K, 30100 kPa	948 ± 1
323.15 K, 100 kPa	920 ± 1
323.15 K, 2500 kPa	922 ± 1
323.15 K, 5100 kPa	924 ± 1
323.15 K, 10000 kPa	927 ± 1
323.15 K, 15100 kPa	930 ± 1
323.15 K, 20100 kPa	934 ± 1
323.15 K, 25100 kPa	937 ± 1
323.15 K, 30400 kPa	940 ± 1
333.15 K, 200 kPa	910 ± 1
333.15 K, 2600 kPa	912 ± 1
333.15 K, 5000 kPa	914 ± 1
333.15 K, 10200 kPa	918 ± 1
333.15 K, 15000 kPa	921 ± 1
333.15 K, 20300 kPa	925 ± 1
333.15 K, 25100 kPa	928 ± 1
333.15 K, 30200 kPa	931 ± 1
343.15 K, 200 kPa	900 ± 1
343.15 K, 2500 kPa	903 ± 1
343.15 K, 5200 kPa	905 ± 1
343.15 K, 10000 kPa	908 ± 1
343.15 K, 15000 kPa	912 ± 1
343.15 K, 20100 kPa	916 ± 1
343.15 K, 25100 kPa	919 ± 1
343.15 K, 30400 kPa	922 ± 1
353.15 K, 200 kPa	890 ± 1
353.15 K, 2500 kPa	893 ± 1
353.15 K, 5100 kPa	895 ± 1
353.15 K, 10100 kPa	899 ± 1
353.15 K, 15000 kPa	903 ± 1
353.15 K, 20100 kPa	907 ± 1
353.15 K, 25100 kPa	910 ± 1
353.15 K, 30200 kPa	914 ± 1
363.15 K, 200 kPa	881 ± 1
363.15 K, 2600 kPa	883 ± 1
363.15 K, 5000 kPa	885 ± 1
363.15 K, 10100 kPa	890 ± 1
363.15 K, 15100 kPa	894 ± 1
363.15 K, 20100 kPa	897 ± 1
363.15 K, 25100 kPa	901 ± 1
363.15 K, 30100 kPa	905 ± 1
373.15 K, 100 kPa	871 ± 1
373.15 K, 2600 kPa	873 ± 1
373.15 K, 5000 kPa	876 ± 1
373.15 K, 10100 kPa	880 ± 1
373.15 K, 15300 kPa	885 ± 1
373.15 K, 20100 kPa	888 ± 1
373.15 K, 25100 kPa	892 ± 1
373.15 K, 30100 kPa	896 ± 1
383.15 K, 100 kPa	860 ± 1
383.15 K, 2500 kPa	863 ± 1
383.15 K, 5100 kPa	866 ± 1
383.15 K, 10000 kPa	870 ± 1
383.15 K, 15100 kPa	875 ± 1
383.15 K, 20200 kPa	880 ± 1
383.15 K, 25100 kPa	884 ± 1
383.15 K, 30300 kPa	888 ± 1
393.15 K, 100 kPa	851 ± 1
393.15 K, 2600 kPa	853 ± 1
393.15 K, 5200 kPa	856 ± 1
393.15 K, 10000 kPa	861 ± 1
393.15 K, 15000 kPa	866 ± 1
393.15 K, 20100 kPa	870 ± 1
393.15 K, 25100 kPa	875 ± 1
393.15 K, 30400 kPa	879 ± 1
403.15 K, 100 kPa	840 ± 1
403.15 K, 2600 kPa	843 ± 1
403.15 K, 5000 kPa	846 ± 1
403.15 K, 10100 kPa	851 ± 1
403.15 K, 15100 kPa	856 ± 1
403.15 K, 20100 kPa	861 ± 1
403.15 K, 25100 kPa	866 ± 1
403.15 K, 30300 kPa	870 ± 1
413.15 K, 200 kPa	830 ± 1
413.15 K, 2500 kPa	833 ± 1
413.15 K, 5000 kPa	836 ± 1
413.15 K, 10200 kPa	842 ± 1
413.15 K, 14900 kPa	847 ± 1
413.15 K, 20000 kPa	852 ± 1
413.15 K, 25200 kPa	857 ± 1
413.15 K, 30000 kPa	861 ± 1

Details	refractive index
[2]	1.42844 ± 0.00031

From the NIST ThermoML archive (doi:10.1016/j.fluid.2016.08.014)
